We go through two compounds from patent US5817674A, “Quinoline compounds” (Roussel Uclaf, priority 1991, dated 1998).

The structures appear in SMILES notation.

One assay has as its target T1, angiotensin II receptor (Rattus norvegicus, UniProt P25095).
T1 construct: A fresh membrane preparation obtained from the liver of a rat was used; from tissue; host or cells: rat liver membranes
T1 sequence (P25095 1-359): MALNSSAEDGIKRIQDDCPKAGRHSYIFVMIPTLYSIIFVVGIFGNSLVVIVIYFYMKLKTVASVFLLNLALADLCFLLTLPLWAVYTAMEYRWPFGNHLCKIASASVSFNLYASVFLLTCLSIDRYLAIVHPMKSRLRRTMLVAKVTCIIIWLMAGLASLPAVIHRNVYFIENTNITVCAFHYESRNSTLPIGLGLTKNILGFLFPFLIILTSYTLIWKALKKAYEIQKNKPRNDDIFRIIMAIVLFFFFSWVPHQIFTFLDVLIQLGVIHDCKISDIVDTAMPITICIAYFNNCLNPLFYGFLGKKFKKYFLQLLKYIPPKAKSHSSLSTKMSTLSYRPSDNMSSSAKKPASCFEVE
Put plainly: Test on the angiotensin II receptor (rat liver membranes, 125I angiotensin II). The following applies: pH 7.4, 25° C., 150 minutes, read-out: IC50 (displacement of 50% of the specific radioactivity fixed on the receptor). The format is binding. As for the experimental part: 1) Test on the angiotensin II receptor
A fresh membrane preparation obtained from the liver of a rat was used. The tissue was ground up in a polytron in a Tris 50 mM pH 7.4 buffer and after being ground up, the tissue was centrifuged 3 times at 30,000 g for 15 mintues with intermediate taking up of the deposits in the Tris pH 7.4 buffer. The last deposits were suspended in a pH 7.4 incubation buffer (Tris 20 mM, NaCl 135 mM, KCl 10 mM, glucose 5 mM, MgCl2 10 mM, benzyl sulfonyl fluoride 0.3 mM, bacitracin 0.1 mM, (0.2% bovine albumin serum). 2 ml aliquoted fractions were divided into hemolysis tubes and 125I angiotensin II (25,000 DPM/tube) and the product to be studied were added. The product was first tested at 3×10^-5 M in triplicate. When the test product displaced more than 50% of the radioactivity linked specifically to the receptor, it was tested again in a range of 7 concentrations to determine the concentration that inhibited the radioactivity linked specifically to the receptor by 50%. In this way, the 50% inhibiting concentration was determined.
The non-specific bond was determined by the addition of the product of Example 94 of the European Patent No. 0,253,310 at 10^-5 M (in triplicate). […]

Assay [1] deals with angiotensin II on the isolated portal vein. The assay is described as follows: antagonistic activity of angiotensin II on the isolated portal vein. More on the design: species or system male Wistar rats. The following applies: rat isolated portal vein; angiotensin II 3.10^-8 M; compound 15 minutes before stimulation; 37° C.; verapamil 1.10^-6 M; read-out: IC50 (concentration that produced a 50% inhibition of the response to angiotensin). As for the experimental part:
The portal vein was removed from male Wistar rats weighing about 350 g (IFFA Credo France) after cervical dislocation. It was put rapidly into a physiological solution (see below) at ambient temperature and a ring of about 1 mm was mounted in a bath with an isolated element containing 20 ml of the following physiological solution (composition in mM: NaCl 118.3-KCl 4.7-MgSO4 1.2-KH2 PO4 1.2-NaHCO3 25-glucose 11.1-CaCl2 2.5). The medium was held at 37° C. and oxygenated by a mixture of O2 95%, CO2 5%. The initial pressure imposed was 1 g and the rings were left at rest for 60 to 90 minutes. To avoid spontaneous contractions, verapamil was added to the incubation bath (1.10^-6 M).
At the end of rest period, angiotensin II (Ciba hypertensin) 3.10^-8 M was added to the incubation bath and left in contact with the preparation for one minute. This operation was repeated every 30 minutes with the tissue being washed 3 or 4 times between two stimulations with angiotensin. The compound to be studied was introduced into the bath 15 minutes before a new stimulation with angiotensin. As increasing concentrations of this molecule were used, an IC50 (concentration that produced a 50% inhibition of the response to angiotensin) was calculated, expressed in nanomoles.

A further assay addresses T2, endotheline receptor (Rattus norvegicus, UniProt P21451).
T2 construct: prepared from rat's posteror cortex plus cerebellum; from tissue; host or cells: rat posterior cortex plus cerebellum membranes
T2 sequence (P21451 27-442): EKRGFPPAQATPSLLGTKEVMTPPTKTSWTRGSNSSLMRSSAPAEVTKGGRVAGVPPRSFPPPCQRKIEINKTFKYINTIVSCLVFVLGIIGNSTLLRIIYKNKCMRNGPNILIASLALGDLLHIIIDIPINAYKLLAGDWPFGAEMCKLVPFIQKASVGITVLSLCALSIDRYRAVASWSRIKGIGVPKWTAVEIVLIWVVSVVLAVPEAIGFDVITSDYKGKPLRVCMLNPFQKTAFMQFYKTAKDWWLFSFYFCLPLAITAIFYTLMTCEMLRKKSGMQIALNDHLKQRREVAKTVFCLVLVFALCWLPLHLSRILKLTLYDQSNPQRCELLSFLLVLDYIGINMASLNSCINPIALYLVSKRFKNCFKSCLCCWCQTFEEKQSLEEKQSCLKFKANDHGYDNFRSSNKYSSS
The assay is described as follows: activity on the endotheline receptor (rat posterior cortex plus cerebellum membranes, 125I Endotheline). The format is binding. As to conditions: pH 7.4, 25° C., 60 minutes, read-out: IC50 (displacement by 50% of the specific radioactivity fixed to the receptor). As for the experimental part:
3) Study of the activity on the endotheline receptor
A membrane preparaton was prepared from rat's posteror cortex plus cerebellum. The tissue was ground up in a POLYTRON in a Tris buffer 50 mM pH=7.4. After 30 minutes at 25° C. (W.B.), the homogenate was centrifuged at 30,000 g for 15 minutes (2 centrifugings with intermediate taking up in the Tris buffer pH 7.4). The deposits were suspended in an incubation buffer (Tris 25 mM, pepsteatine 5 microg/ml, aprotinine 3 microg/ml. PMSF 0.1 mM, EDTA 3 mM, EGTA 1 mM pH 7.4). 2 ml aliquots were distributed in hemolysis tubes and 125I Endotheline (about 50,000 dpm/tube) and the product to be studied were added. The product was first tested at 3×10^-5 M in triplicate. When the tested product displaced by more than 50% the radioactivity linked specifically to the receptor, it was tested again in a range of 7 concentrations to determine the concentration that inhibited the radioactivity linked specifically to the receptor by 50%. In this way, the 50% inhibiting concentration was determined.
The non-specific bond was determined by the addition of endotheline at 10^-6 M (in triplicate). The aliquot was incubated at 25° C. for 60 minutes, put in a water bath at 0° C. for 5 minutes, filtered under reduced pressure, rinsed with Tris buffer 7.4 pH and the radioactivity was counted in the presence of scintillating Triton. […]

Assay [2] relates to vasoconstrictive effect of endotheline. The assay is described as follows: antagonistic activity of the vasoconstrictive effect of endotheline in a demedullated rat. The format is in vivo. As to conditions: 1 mg/kg (IV), 10 minutes before endotheline 1-3-10-30 μg/kg IV; anaesthetized demedullated Sprague Dawley rats. As for the experimental part:
4) Investigation of an antagonistic activity of the vasoconstrictive effect of endotheline in a demedullated rat
The vasoconstriction caused by injections (IV) of cumulative doses of endotheline (1-3-10-30 μg/kg) was measured by the increase of average arterial pressure in a control group of rats (Sprague Dawley), anaesthetized, then demedullated.

For the compound `CCCCc1cc(Cc2ccc(-c3ccccc3C(=O)O)cc2)c2ccccc2n1` [Example 4, 4'-[(2-butyl-4-quinolinyl)-methyl](1,1'-biphenyl)-2-carboxylic acid], the IC50 was determined as 540 nM at angiotensin II receptor and 131 nM in assay [1].

In the case of `CC(C)Cc1cc(OCc2ccc(-c3ccccc3C(=O)O)cc2)c2cccc(C(F)(F)F)c2n1` [Example 35, 4'-(((2-(2-methylproyl)-8-(trifluoromethyl)-4-quinolinyl)-oxy)-methyl)(1,1'-biphenyl)-2-carboxylic acid], the IC50 at endotheline receptor is 14000 nM. The “antagonistic effect: decrease in response to endotheline (average arterial pressure)” value in assay [2] was “antagonistic effect”.
